The text below walks through data of US20050180954A1, “Drug for treating bone disorders” (priority 1995, published 2005).

For assay [1], the system named is MC3T3-E1 cells. The assay can be described thus: Proliferation of murine osteoblastic cells MC3T3-E1 (in vitro single administration). The assay is classed as cell-based, mouse. Particulars: 10,000 units/ml; cell count on Day 6. As to the method: Murine osteoblast like cells MC3T3-E1 originated from C 57 BL/6 mouse (Kodama et al., Jap. J. Oral Biol., 23, 899, 1982) were washed with PBS(−) and the cells were dissociated by incubation in PBS(−) containing 0.1% pronase (Actinase E, Kaken Pharmaceuticals Co.), followed by dispersing the cells in α-MEM containing 10% JCS and 50 μg/ml of L-ascorbic acid (ASA). The ability to promote proliferation of cells was evaluated as follows. That is, MC3T3-E1 cells were placed in each well in 24-well plates (Corning) in an amount of 5000 cells/well. Then each IFN dilution was added to each well in an amount of 0.1 ml/well, and the culturing was begun. On Day 2, the medium was removed and the each IFN dilution was added in an amount of 0.5 ml/well (total amount of liquid: 0.5 ml/well). On Day 6, the medium was removed and the cells were washed with PBS(−) and a mixed enzyme solution of 0.1% pronase/0.1% collagenase was added to each well in an amount of 200 μl/well, followed by allowing to react at 37° C. for 15 minutes. Then α-MEM containing 10% fetal calf serum (Gibco, hereinafter referred to as “FCS” for short) was added in an amount of 300 μl/well to disperse the cells therein and the number of the cells was counted with a Coulter counter.

Assay [2] deals with MC3T3-E1 cells. The assay can be described thus: Quantification of calcium in calcified foci of MC3T3-E1. The assay is classed as cell-based, mouse. Particulars: 1000 units/ml; MC3T3-E1, Day 14. As to the method: MC3T3-E1 cells were placed in each well in 24-well plates in an amount of 50,000 cells/well and cultured to confluency. The medium was removed and fresh α-MEM containing 10% JCS, 50 μg/ml of L-ascorbic acid and 10 mM β-glycerophosphate was added in an amount of 0.9 ml/well, followed by adding 0.1 ml/well of medium containing varying concentration of IFN. The medium was replaced with IFN-free medium every 4 days. On Day 14, the medium was removed and the cells were lightly washed with Hank's solution. Anhydrous ethanol was added in an amount of 1 ml/well and fixation was carried out at room temperature for 15 minuets. Then the anhydrous ethanol was replaced with fresh anhydrous ethanol in an amount of 1 ml/well and 5 minutes later, each well was dried in the air. Then 1N hydrochloric acid was added in an amount of 1 ml/well and extraction was carried out at room temperature for 30 minutes. The total contents of each well were transferred to an Eppendorf tube and centrifuged at 1800×g at 4° C. for 10 minutes The amount of calcium in the supernatant was measured by Calcium C Test Wako and the amount of inorganic phosphorus in the supernatant was measured by Phospha B Test Wako. […] The IC50 value was as low as about 10 units/ml (FIG. 5).

Assay [3] relates to ovariectomized mice of ddy strain. The assay can be described thus: Osteoporosis model mice: urinary D-Pyr (bone resorption marker). The class given is in vivo, mouse. The settings on record: for amount of excreted urinary D-Pyr compensated with urinary creatinine: ovariectomized mice, Week 4. As to the method:
Female mice of ddy strain of 8 weeks old were divided into 5 groups and experiment was carried out. Bilateral ovariectomy was performed on the mice in 3 groups and sham operation alone was performed on the mice in 2 groups. Thereafter, the mice were raised with normal diet for 1 month, thereby making the state of osteoporosis in the ovariectomized groups. In this model, it is known that the mice become the state of osteoporosis 2 to 3 weeks after the ovariectomy (T. Hosaka et al., ANITEX, Vol. 5, 243, 1992; Miyaura, C. et al., J. Bone Mineral Res., 10, 1365, 1995). From the third weeks from the ovariectomy, murine IFN was subcutaneously administered (100 μl/head/time) once per day, totally 25 times. On Day 30 from the beginning of administration, under ether anesthesia, body weight was measured, blood was collected, and femur was collected and dry bone weight thereof was measured for each mouse.
Drying of femur was performed as follows. That is, femur was fixed with 2 ml of 70% ethanol per one taken out femur at room temperature for 24 hours and then the attached muscles and connective tissues were carefully removed with a forceps and surgical knife with replaceable blade. After immersing the femur in fresh 70% ethanol for 72 hours at room temperature, the femur was dried in a hot wind-generating incubator (Koukensha Engineering. Co., Tokyo) at 55° C. for 24 hours. The weight of the dried bone was measured with an electronic force balance (Mettler AE50, Metteler Instrumente AG, Switzerland). Murine IFN to be administered was diluted to the desired concentration with physiological saline. During the test, urine of mice was collected with metabolic cage (KN-645, Natsumeseisakusho, Tokyo) and frozen to store. To one group subjected to the sham operation, physiological saline (Otsuka Pharmaceutical Co.) was administered, and to another group subjected to the sham operation, murine IFNβ was administered at a dose of 10^5 units/head/time (diluted with physiological saline when use). […]

Turning to “MuIFNβ: murine interferon β, Lot M-0034, prepared by Toray Industries, Inc. by genetic engineering technique”, the “inhibition of proliferation of MC3T3-E1 cells” value with MC3T3-E1 cells [1] was “did not inhibit the proliferation at all”. For the same substance, in the assay on MC3T3-E1 cells [2], the “calcium deposition smaller than the control” value came out at 20%. Besides, the “amount of excreted urinary D-Pyr compensated with urinary creatinine” value in assay [3] (10^3 units/head/time) and in assay [3] (10^5 units/head/time) was “inhibition of bone resorption was observed” in each case. Besides, the “inhibition of excretion of urinary deoxypyridinoline” value in assay [3] (sham operation groups) is “is exhibited also in the sham operation groups”.
